Data taken from ChEMBL document CHEMBL1154508, “Discovery of GSK345931A: An EP(1) receptor antagonist with efficacy in preclinical models of inflammatory pain” (Bioorg Med Chem Lett, 2009).

Assays:
[1] = Drug level in blood of sub-chronic rat joint pain efficacy model treatment group at 20 mg/kg bid measured on day 5 after 1 hr post dose; type: ADME, organism-based; parameters: dose 20 mg/kg; settings: read-out: Drug uptake
[2] = biological target: T1, Peroxisome proliferator-activated receptor delta (Homo sapiens, UniProt Q03181); test: Activity at PPARdelta
T1 sequence (Q03181 whole entry): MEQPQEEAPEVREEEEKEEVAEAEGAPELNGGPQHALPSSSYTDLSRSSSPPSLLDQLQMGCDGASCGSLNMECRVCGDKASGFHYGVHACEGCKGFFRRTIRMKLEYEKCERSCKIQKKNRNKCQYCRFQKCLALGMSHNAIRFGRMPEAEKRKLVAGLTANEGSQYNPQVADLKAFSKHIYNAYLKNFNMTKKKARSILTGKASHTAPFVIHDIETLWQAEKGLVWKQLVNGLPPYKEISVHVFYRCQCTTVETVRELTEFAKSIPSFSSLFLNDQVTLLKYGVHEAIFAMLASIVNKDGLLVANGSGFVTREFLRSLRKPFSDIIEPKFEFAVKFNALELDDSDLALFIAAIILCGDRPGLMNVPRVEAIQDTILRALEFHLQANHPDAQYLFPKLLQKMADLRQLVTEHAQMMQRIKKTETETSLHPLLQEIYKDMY

[3] = Drug level in blood of sub-chronic rat joint pain efficacy model satellite animal group at 5 mg/kg bid measured on day 1 after 1 hr post dose; type: ADME, organism-based; parameters: dose 5 mg/kg; settings: read-out: Drug uptake
[4] = Oral bioavailability in rat at 3 mg/kg; type: ADME, organism-based; settings: in vivo
[5] = Ratio of drug level in brain to blood in mouse at 3 mg/kg, po after 0.5 hr; type: ADME, organism-based; parameters: dose 3 mg/kg, route oral
[6] = Drug level in blood of sub-chronic rat joint pain efficacy model treatment group at 5 mg/kg bid measured on day 5 after 1 hr post dose; type: ADME, organism-based; parameters: dose 5 mg/kg; settings: read-out: Drug uptake
[7] = Half life in rat at 1 mg/kg, iv; type: ADME, organism-based; parameters: dose 1 mg/kg, route intravenous; settings: in vivo
[8] = Drug level in brain of sub-chronic rat joint pain efficacy satellite animal group model at 5 mg/kg bid measured on day 5 after 1 hr post dose; type: ADME, organism-based; parameters: dose 5 mg/kg; settings: read-out: Drug uptake
[9] = Drug level in blood of sub-chronic rat joint pain efficacy model satellite animal group at 20 mg/kg bid measured on day 1 after 1 hr post dose; type: ADME, organism-based; parameters: dose 20 mg/kg; settings: read-out: Drug uptake
[10] = Metabolic stability assessed as intrinsic clearance per gram of monkey liver microsomes; type: ADME, Macaca mulatta, Microsome; settings: rhesus monkey
[11] = Ratio of drug level in brain to blood in rat at 0.28 mg/kg/hr, iv for 18 hrs; type: ADME, organism-based; parameters: route intravenous
[12] = biological target: T2, Peroxisome proliferator-activated receptor alpha (Homo sapiens, UniProt Q07869); test: Activity at PPARalpha
T2 sequence (Q07869 whole entry): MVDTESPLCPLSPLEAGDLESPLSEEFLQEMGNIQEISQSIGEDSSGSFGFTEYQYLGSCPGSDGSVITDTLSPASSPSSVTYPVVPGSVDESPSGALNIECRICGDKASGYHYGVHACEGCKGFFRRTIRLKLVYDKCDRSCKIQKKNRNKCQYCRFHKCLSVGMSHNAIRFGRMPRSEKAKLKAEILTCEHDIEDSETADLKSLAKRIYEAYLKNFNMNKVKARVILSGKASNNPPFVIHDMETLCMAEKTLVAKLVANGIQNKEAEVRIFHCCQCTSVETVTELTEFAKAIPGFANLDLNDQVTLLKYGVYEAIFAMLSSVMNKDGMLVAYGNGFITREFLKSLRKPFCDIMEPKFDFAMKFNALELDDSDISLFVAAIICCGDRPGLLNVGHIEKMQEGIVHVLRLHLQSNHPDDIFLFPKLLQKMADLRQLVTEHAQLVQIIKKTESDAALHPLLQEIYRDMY

[13] = Blood clearance in rat at 1 mg/kg, iv; type: ADME, organism-based; parameters: dose 1 mg/kg, route intravenous
[14] = Drug level in blood of complete Freund's adjuvant-induced rat inflammatory pain model at 3 mg/kg, po after 1 hr; type: ADME, organism-based; parameters: dose 3 mg/kg, route oral; settings: read-out: Drug uptake
[15] = Solubility in fasted state simulated intestinal fluid after 2 hrs; type: physicochemical
[16] = Drug level in mouse blood at 3 mg/kg, po after 0.5 hrs; type: ADME, organism-based; parameters: dose 3 mg/kg, route oral; settings: read-out: Drug uptake
[17] = biological target: T1, Peroxisome proliferator-activated receptor delta; test: Binding affinity PPARdelta
Thromboxane A2 receptor = biological target: T3, Thromboxane A2 receptor (Homo sapiens, UniProt P21731); test: Binding affinity to TP receptor
T3 sequence (P21731 whole entry): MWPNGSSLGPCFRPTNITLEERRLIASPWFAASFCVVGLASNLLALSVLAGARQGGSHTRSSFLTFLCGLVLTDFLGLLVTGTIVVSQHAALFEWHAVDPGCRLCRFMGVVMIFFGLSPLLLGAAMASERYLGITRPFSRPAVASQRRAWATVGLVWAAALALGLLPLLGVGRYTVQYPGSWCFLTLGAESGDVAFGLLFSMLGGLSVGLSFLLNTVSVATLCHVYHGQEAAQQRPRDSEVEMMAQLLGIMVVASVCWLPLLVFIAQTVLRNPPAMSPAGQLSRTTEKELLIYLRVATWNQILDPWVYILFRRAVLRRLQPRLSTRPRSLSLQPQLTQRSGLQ

[18] = Ratio of drug level in brain to blood of sub-chronic rat joint pain efficacy model treatment group at 5 mg/kg bid measured on day 5 after 1 hr post dose; type: ADME, organism-based; parameters: dose 5 mg/kg
[19] = biological target: T4, Prostaglandin E2 receptor EP1 subtype (Homo sapiens, UniProt P34995); test: Binding affinity to human EP1 receptor
T4 sequence (P34995 whole entry): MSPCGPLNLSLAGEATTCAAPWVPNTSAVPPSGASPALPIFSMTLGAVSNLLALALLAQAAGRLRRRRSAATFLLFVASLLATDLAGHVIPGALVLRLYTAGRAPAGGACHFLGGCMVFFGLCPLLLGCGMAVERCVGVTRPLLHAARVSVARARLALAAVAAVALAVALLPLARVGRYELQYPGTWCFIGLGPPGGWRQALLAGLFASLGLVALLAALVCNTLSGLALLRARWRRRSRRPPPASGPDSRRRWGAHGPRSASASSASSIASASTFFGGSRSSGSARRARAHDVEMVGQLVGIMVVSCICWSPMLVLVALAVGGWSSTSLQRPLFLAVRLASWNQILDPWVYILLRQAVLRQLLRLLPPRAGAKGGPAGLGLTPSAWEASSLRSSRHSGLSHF

[20] = Drug level in mouse brain at 3 mg/kg, po after 0.5 hrs; type: ADME, organism-based; parameters: dose 3 mg/kg, route oral; settings: read-out: Drug uptake
[21] = Partition ratio of fraction unbound in rat brain to blood; type: ADME, tissue-based
Liver microsomes = test: Metabolic stability assessed as intrinsic clearance per gram of rat liver microsomes; type: ADME, Microsome
[22] = Ratio of drug level in brain to blood in complete Freund's adjuvant-induced rat inflammatory pain model at 10 mg/kg, po after 1 hr; type: ADME, organism-based; parameters: dose 10 mg/kg, route oral
[23] = biological target: Voltage-gated inwardly rectifying potassium channel KCNH2 (Homo sapiens, UniProt Q12809); test: Displacement of [3H]dofetilide from human ERG receptor
[24] = Oral bioavailability in cynomolgus monkey at 3 mg/kg; type: ADME, organism-based, Macaca fascicularis; settings: in vivo
[25] = Drug level in brain of sub-chronic rat joint pain efficacy model treatment group at 20 mg/kg bid measured on day 5 after 1 hr post dose; type: ADME, organism-based; parameters: dose 20 mg/kg; settings: read-out: Drug uptake
[26] = Half life in cynomolgus monkey at 1 mg/kg, iv; type: ADME, organism-based, Macaca fascicularis; parameters: dose 1 mg/kg, route intravenous; settings: in vivo
[27] = Ratio of drug level in brain to blood of sub-chronic rat joint pain efficacy model satellite animal group at 5 mg/kg bid measured on day 5; type: ADME, organism-based; parameters: dose 5 mg/kg

Chain of Voltage-gated inwardly rectifying potassium channel KCNH2 (Q12809 whole entry): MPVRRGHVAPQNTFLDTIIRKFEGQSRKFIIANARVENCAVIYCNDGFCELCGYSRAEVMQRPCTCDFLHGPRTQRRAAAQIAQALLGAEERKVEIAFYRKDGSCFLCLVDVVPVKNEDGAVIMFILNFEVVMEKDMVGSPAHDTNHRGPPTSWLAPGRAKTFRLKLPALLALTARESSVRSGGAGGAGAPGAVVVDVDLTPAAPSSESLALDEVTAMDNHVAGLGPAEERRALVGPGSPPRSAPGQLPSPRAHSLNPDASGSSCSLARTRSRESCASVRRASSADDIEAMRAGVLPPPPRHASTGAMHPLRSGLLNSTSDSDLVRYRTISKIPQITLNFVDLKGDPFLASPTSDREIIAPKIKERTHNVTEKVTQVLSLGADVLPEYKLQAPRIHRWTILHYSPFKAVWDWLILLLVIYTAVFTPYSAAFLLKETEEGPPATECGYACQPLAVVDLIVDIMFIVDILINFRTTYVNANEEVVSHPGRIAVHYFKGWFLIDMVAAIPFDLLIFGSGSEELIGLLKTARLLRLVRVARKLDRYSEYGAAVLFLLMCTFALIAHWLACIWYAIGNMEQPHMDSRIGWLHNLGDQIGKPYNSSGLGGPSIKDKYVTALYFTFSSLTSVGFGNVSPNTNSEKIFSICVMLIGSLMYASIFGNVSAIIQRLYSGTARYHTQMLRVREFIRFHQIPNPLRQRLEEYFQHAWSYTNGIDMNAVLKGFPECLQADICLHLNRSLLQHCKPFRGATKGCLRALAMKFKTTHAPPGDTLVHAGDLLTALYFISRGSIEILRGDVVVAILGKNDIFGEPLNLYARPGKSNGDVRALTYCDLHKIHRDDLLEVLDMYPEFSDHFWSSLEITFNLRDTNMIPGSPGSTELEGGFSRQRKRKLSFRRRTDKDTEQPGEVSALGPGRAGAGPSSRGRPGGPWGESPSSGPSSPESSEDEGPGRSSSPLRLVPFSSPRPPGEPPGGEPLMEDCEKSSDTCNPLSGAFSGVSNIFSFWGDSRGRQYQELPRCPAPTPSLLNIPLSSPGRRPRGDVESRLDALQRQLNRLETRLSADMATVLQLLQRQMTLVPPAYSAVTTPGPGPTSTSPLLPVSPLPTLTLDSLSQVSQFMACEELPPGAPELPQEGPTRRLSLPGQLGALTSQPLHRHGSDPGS

concentration at 1 h [1]: 5.53 µM
EC50 [2]: > 10 µM
concentration at 1 h [3]: 5.27 µM
bioavailability [4]: 95%
Kp at 0.5 h [5]: 0.24
concentration at 1 h [6]: 1.63 µM
half-life [7]: 3.5 h
concentration at 1 h [8]: 0.822 µM
concentration at 1 h [9]: 25.9 µM
CL [10]: 8 mL/min/g
Kp at 18 h [11]: 0.33
EC50 [12]: > 10 µM
clearance [13]: 11 mL/min/kg
concentration at 1 h [14]: 3.33 µM
solubility at 2 h [15]: 1030 µg/mL
concentration at 0.5 h [16]: 1.12 µM
Ki [17]: > 20 µM
Ki (Thromboxane A2 receptor): 0.316 µM
Kp at 1 h [18]: 0.57
IC50 [19]: 0.016 µM
concentration at 0.5 h [20]: 0.277 µM
Kbb [21]: 0.93
CL (Liver microsomes): 0.7 mL/min/g
Kp at 1 h [22]: 0.48
bioavailability [24]: 34%
concentration at 1 h [25]: 3.21 µM
half-life [26]: 0.8 h
Kp at 5 day [27]: 0.54
Structure (SMILES): CC(C)COc1ccc(Cl)cc1-c1ccccc1-c1cccc(C(=O)[O-])n1.[Na+]
IC50 [23]: > 31.6 µM
